# Reference: patent publication US20040265964A1, “Inducers of recombinant protein expression” (priority 2003, published 2004)
# What was measured:
# Assay type in all cases: cell-based, Chinese hamster
# [1] = tested on: fluorescent reporter gene DsRed under the control of an EASE/CMV promoter in CHO cells; assay: DsRed fluorescent reporter induction in CHO cell pools, 96 well format; conditions: for increase in DsRed expression per viable cell relative to control: 96 well, 6 days at 31° C.; for effectiveness as inducers of recombinant polypeptide production: compound screening, conditions not given
# Experimental: FIG. 1 is a graph of the Effect of Combinations of Compounds on Induction of Reporter Gene. Pools of cells that expressed a fluorescent marker protein, DsRed, under the control of an EASE/CMV promoter were cultured in 96 well plates at 35° C. for 6 days in the presence of the indicated amount of compound. The amount of fluorescence is plotted as a function of the concentration of compound. Compounds used for induction were hexanohydroxamic acid (HHA) (diamonds), Hexamethylenebisacetamide (HMBA) (squares) and both HHA+HMBA (triangles).
# Using a construct that expressed DsRed under the control of a EASE/CMV promoter, including an adenoviral tripartite leader, as an indicator for expression, various compounds were assayed.
# Pools of cells were selected in -GHT medium for presence of the expression vector, and then plated in a 96 well format in serum-free medium. Hydrocinnamic acid was added to test wells at 0.5 millimolar, the temperature decreased from 37° C. to 31° C., and culture continued for 6 days at the reduce temperature. DsRed fluorescence was assayed on a Wallac Victor2 multilabel microplate reader (PerkinElmer Life Sciences, Boston, Mass.).
# [2] = tested on: CHO cell line that expresses a soluble form of the IL1-receptor type II; assay: IL1RII expression by CHO cell line in shake flasks
# Experimental: The induction capacity of this compound was then tested in a different format on a different recombinant protein. […] Cells were grown in serum-free medium in shake flasks, hydrocinnamic acid was added to a concentration of 0.5 millimolar, and incubation continued at 31° C. for 9 to 10 days.
# [3] = tested on: CHO cell pools transfected with an expression vector encoding an antibody against the IL4 receptor; assay: Antibody expression by unamplified CHO cell pools, 96 well plates; conditions: for increase in antibody expression relative to control, compound used individually: single compound (HHA 10 micromolar, 3-phenylpropionohydroxamic acid 10 micromolar, HMBA 1 millimolar as in the combinations); for increase in antibody expression relative to control, compound used individually / increase in antibody expression relative to control: 4 days at 37° C.; for increase in antibody expression relative to control: 0.5 mM inducer (per example heading), average over experiments
# Experimental: In addition, CHO cell pools transfected with an expression vector encoding an antibody against the IL4 receptor were tested (see U.S. Pat. No. 5,717,072, incorporated by reference herein). Unamplified pools were plated in serum-free medium in 96 well plates and incubated with inducer for 4 days at 37° C.
# [4] = tested on: CHO cell that expresses a soluble form of a TNF receptor, TNFR:Fc; assay: TNFR:Fc expression by CHO cells in shake flasks; conditions: 7 days at a reduced temperature
# Description: Another cell line tested was a CHO cell that expresses a soluble form of a TNF receptor, TNFR:Fc (U.S. Pat. No. 5,605,690, incorporated by reference herein). […]
# [5] = tested on: fluorescent reporter gene DsRed under the control of an EASE/CMV promoter in CHO cells; assay: DsRed fluorescent reporter induction in CHO cell pools, 96 well format; conditions: 6 days at 31° C.
# [6] = 0.5 mM compound, average over experiments
# [7] = 0.5 millimolar compound, serum-free medium, 31° C. for 9 to 10 days
# [8] = 0.5 mM compound, serum-free medium
smiles,measurement,setting,value
Cc1ccc(CCC(=O)O)cc1 [3-(4-methylphenyl)propionic acid],increase in DsRed expression per viable cell relative to control,[1]; [6],70%
same,increase in IL1RII expression relative to control,[2]; [7],15%
O=C(CCc1ccccc1)NO [3-phenylpropionohydroxamic acid],"increase in antibody expression relative to control, compound used individually",[3],not a significant increase
O=C(O)CCCc1ccccc1 [4-phenylbutyric acid],increase in DsRed expression per viable cell relative to control,[1]; [6],60%
same,increase in IL1RII expression relative to control,[2]; [7],21%
O=C(O)CCCCc1ccccc1 [5-phenylvaleric acid],increase in DsRed expression per viable cell relative to control,[1]; [6],40%
same,increase in antibody expression on day 3,"[3]; 0.5 mM 5-phenylvaleric acid, 37° C., day 3",no increase
same,increase in antibody expression relative to control,[3],40%
same,increase in IL1RII expression relative to control,[2]; [7],44%
same,increase in TNFR:Fc expression relative to control cells,[4]; [8],33%
"CCCCCC(=O)NO [HHA, hexanohydroxamic acid]","increase in antibody expression relative to control, compound used individually",[3],did not have a significant increase
same,increase in IL1RII expression relative to control,"[2]; 10 micromolar HHA, 31° C. for 9 days",19%
same,increase in DsRed expression relative to the control,[5]; 10 micromolar HHA alone,48%
same,increase in TNFR:Fc expression relative to control cells,[4]; 10 micromolar HHA,19%
same,increase in TNFR:Fc expression relative to control cells,[4]; 20 micromolar HHA,11%
"CC(=O)NCCCCCCNC(C)=O [HMBA, hexamethylene bisacetamide, reference compound]","increase in antibody expression relative to control, compound used individually",[3],not a significant increase
same,increase in DsRed expression relative to the control,[5]; 1 millimolar HMBA alone,20%
same,increase in TNFR:Fc expression relative to control cells,[4]; 1.0 millimolar HMBA alone,14%
CCCCNC(C)=O [N-butylacetamide],increase in DsRed expression per viable cell relative to control,"[1]; 1.0 millimolar compound, average of 2 experiments",77%
O=C(O)CCc1ccccc1 [hydrocinnamic acid],increase in DsRed expression per viable cell relative to control,[1]; [6],60%
same,increase in antibody expression relative to control,[3],5%
same,increase in IL1RII expression relative to control,[2]; [7],22%
same,increase in TNFR:Fc expression relative to control cells,[4]; [8],20%
"CC(CC(=O)O)C(=O)O (centres unmarked) [methylsuccinic acid, reference compound]",effectiveness as inducers of recombinant polypeptide production,[1],ineffective
"O=C(O)CCCCCC(=O)O [pimelic acid, reference compound]",effectiveness as inducers of recombinant polypeptide production,[1],ineffective
"O=C(O)CC(O)(CC(=O)O)C(=O)[O-].[Na+] [sodium dihydrogen citrate, reference compound]",effectiveness as inducers of recombinant polypeptide production,[1],ineffective
